Source: patent US12122776B2, “Tetracyclic compounds and uses thereof” (Gilead Sciences, Inc., priority 2020, dated 2024)
Where two headings read alike, the source gives them in different places.

Columns and labels:
Type in all cases: cell-based
pLai RLuc reporter virus = assay: HIV MT-4 serum shift antiviral reporter assay; settings: Human immunodeficiency virus 1, MT4, 72 h
Method: Example 25: HIV MT-4 Serum Shift Antiviral Reporter Assay
To quantify the amount of protein binding to human serum, compounds were serially diluted (1:3) in DMSO and acoustically transferred onto 384-well assay plates via a Labcyte ECHO robot. Each plate contained up to 8 test compounds, including negative and positive controls, (DMSO, 5 μM AZT respectively). Assay plates were prepared in duplicate, and tested in either CCM (cell culture media) or HS/CCM (human serum/cell culture media). MT-4 cells were first pre-infected with pLai RLuc reporter virus for 2 h at 37° C., then further diluted in either CCM (RPMI media, 10% FBS, 1% P/S) or HS/CCM (RPMI media, 10% FBS, 50% HS, 1% P/S), and subsequently added to each plate using a Biotek Micro Flow dispenser. After a 72-h incubation in a humidified and temperature controlled incubator (37° C.), Renilla Glo (Promega) was added to all assay plates and chemiluminescence read using an Envision plate-reader. EC50 values were defined as the compound concentration that causes a 50% decrease in luminescence signal, and were calculated using a sigmoidal dose-response model to generate curve fits. To determine the amount of protein binding, EC50 fold shifts (or EC50 shifts) were calculated by dividing EC50 (HS/CCM)/EC50 (CCM).

HIV-1 (IIIB) = assay: Antiviral assay in MT-4 cells; settings: Human immunodeficiency virus 1, MT4, 120 h; replication of HIV-1 (IIIB) in MT-4 cells, 5 days incubation, Cell Titer Glo
Method: Example 24: HIV MT-4 Antiviral and Cytotoxicity Assay
Antiviral Assay in MT-4 Cells
Compounds were tested in a high-throughput 384-well assay format for their ability to inhibit the replication of HIV-1 (IIIB) in MT-4 cells. Compounds were serially diluted (1:3) in DMSO on 384-well polypropylene plates and further diluted 200-fold into complete RPMI media (10% FBS, 1% P/S) using the Biotek Micro Flow and Labcyte ECHO acoustic dispenser. Each plate contained up to 8 test compounds, with negative (No Drug Control) and 5 μM AZT positive controls. MT-4 cells were pre-infected with 10 μL of either RPMI (mock-infected) or a fresh 1:250 dilution of HIV-1 IIIB concentrated virus stock. Infected and uninfected MT-4 cells were further diluted in complete RPMI media and added to each plate using a Micro Flow dispenser. After 5 days incubation in a humidified and temperature controlled incubator (37° C.), Cell Titer Glo (Promega) was added to the assay plates and chemiluminescence read using an Envision plate-reader. EC50 values were defined as the compound concentration that causes a 50% decrease in luminescence signal, and were calculated using a sigmoidal dose-response model to generate curve fits.

[1] = Cytotoxicity assay in MT-4 cells; settings: human; uninfected MT-4 cells, 5 days incubation, Cell Titer Glo
Method: Cytotoxicity Assay in MT-4 Cells Assays were performed as above except uninfected MT-4 cells were added to each well containing test compound. In addition, 10 μM puromycin was added to the last column of each assay plate to assess a base level of cytotoxicity.

[2] = read-out: Antiviral Serum Shift RLuc 50% HS
[3] = read-out: Antiviral Serum Shift RLuc CCM

Row | EC50 (HIV-1 (IIIB)) [nM] | SMILES | EC50 (pLai RLuc reporter virus; [2]) [nM] | EC50 (pLai RLuc reporter virus; [3]) [nM] | CC50 at 5 days [1] [nM]
1 | 2.29 | O=C(NCc1c(F)cc(F)cc1F)c1c2n3c(c(O)c1=O)C(=O)N1CCCC[C@@]3(C[C@H]2F)C1 (single isomer, unassigned) [Compound 8-2] |  |  | 
2 |  | O=C(NCc1c(F)cc(F)cc1F)c1c2n3c(c(O)c1=O)C(=O)N1CCCC[C@]3(C1)[C@H](O)[C@H]2O (single isomer, unassigned) [Compound 11-2] | 48.4 | 1.52 | 
3 | 4.47 | CO[C@H]1C[C@@]23CCCCN(C2)C(=O)c2c(O)c(=O)c(C(=O)NCc4c(F)cc(F)cc4F)c1n23 (single isomer, unassigned) [Compound 12-3] |  |  | 14800
4 | 7.33 | CO[C@@H]1C[C@]23CCCCN(C2)C(=O)c2c(O)c(=O)c(C(=O)NCc4c(F)cc(F)cc4F)c1n23 (single isomer, unassigned) [Compound 12-4] |  |  | 
5 | 1.7 | CO[C@@H]1[C@@H](OC)c2c(C(=O)NCc3c(F)cc(F)cc3F)c(=O)c(O)c3n2[C@@]12CCCCN(C2)C3=O (single isomer, unassigned) [Compound 13-1] |  |  | 27800
6 | 1.1 | CO[C@@H]1c2c(C(=O)NCc3c(F)cc(F)cc3F)c(=O)c(O)c3n2[C@]2(CCCCN(C2)C3=O)[C@H]1OC (single isomer, unassigned) [Compound 13-2] |  |  | 24700
7 | 9.5 | CO[C@@H]1c2c(C(=O)NCc3c(F)cc(F)cc3F)c(=O)c(O)c3n2[C@@]2(CCCCN(C2)C3=O)[C@H]1OC (single isomer, unassigned) [Compound 13-3] |  |  | 10100
8 | 10.7 | CO[C@@H]1[C@@H](OC)c2c(C(=O)NCc3c(F)cc(F)cc3F)c(=O)c(O)c3n2[C@]12CCCCN(C2)C3=O (single isomer, unassigned) [Compound 13-4] |  |  | 30700
9 | 2.8 | O=C(NCc1c(F)cc(F)cc1F)c1c2n3c(c(O)c1=O)C(=O)N1CCCC[C@]3(CC2CO)C1 (single isomer, unassigned) [Compound 16] |  |  | 7450
10 | 2.6 | O=C(NCc1cccc(Cl)c1F)c1c2n3c(c(O)c1=O)C(=O)N1CCCC[C@]3(CC2)C1 [Compound 6, (6aS)—N-(3-chloro-2-fluorobenzyl)-11-hydroxy-1,10-dioxo-1,3,4,5,6,7,8,10-octahydro-2,6a-methano[1,4]diazonino[9,1,2-cd]indolizine-9-carboxamide] |  |  | 3680
11 | 2.1 | CO[C@H]1CC[C@H](C)N2C[C@]13CCc1c(C(=O)NCc4ccc(F)cc4F)c(=O)c(O)c(n13)C2=O [Compound 19-1, (1R,11S,14S)—N-[(2.4 difluorophenyl)methyl]-7-hydroxy-14-methoxy-11-methyl-6,9-dioxo-10,15-diazatetracyclo[6.6.1.11,10.04,15]hexadeca-4.7 diene-5-carboxamide] |  |  | 4600
12 | 0.86 | CO[C@H]1C=C[C@H](C)N2C[C@]13CCc1c(C(=O)NCc4ccc(F)cc4F)c(=O)c(O)c(n13)C2=O [Compound 19-2, (1R,11S,14S)—N-[(2.4 difluorophenyl)methyl]-7-hydroxy-14-methoxy-11-methyl-6,9-dioxo-10,15-diazatetracyclo[6.6.1.11,10.04,15]hexadeca-4,7,12-triene-5-carboxamide] |  |  | 1870
13 | 1.2 | CO[C@H]1C=C[C@H](C)N2C[C@]13CC(O)c1c(C(=O)NCc4ccc(F)cc4F)c(=O)c(O)c(n13)C2=O (stereo partly drawn) [Compound 19-3, (1R,11S,14S)—N-[(2.4 difluorophenyl)methyl]-3.7 dihydroxy-14-methoxy-11-methyl-6,9-dioxo-10,15-diazatetracyclo[6.6.1.11,10.04,15]hexadeca-4,7,12-triene-5-carboxamide] |  |  | 6950
14 | 1.8 | CO[C@H]1C=C[C@H](C)N2C[C@]13CCc1c(C(=O)NCc4c(F)cc(F)cc4F)c(=O)c(O)c(n13)C2=O [Compound 22, (3S,6S,6aR)-11-hydroxy-6-methoxy-3-methyl-1,10-dioxo-N-(2,4,6-trifluorobenzyl)-1,3,6,7,8,10-hexahydro-2,6a-methano[1,4]diazonino[9,1,2-cd]indolizine-9-carboxamide] |  |  | 1940
15 | 5.7 | C[C@H]1CC[C@H](O)[C@]23CCc4c(C(=O)NCc5c(F)cc(F)cc5F)c(=O)c(O)c(n42)C(=O)N1C3 [Compound 23-1, (3S,6S,6aR)-6,11-dihydroxy-3-methyl-1,10-dioxo-N-(2,4,6-trifluorobenzyl)-1,3,4,5,6,7,8,10-octahydro-2,6a-methano[1,4]diazonino[9,1,2-cd]indolizine-9-carboxamide] |  |  | 26600

Row | SMILES | EC50 (HIV-1 (IIIB)) [nM] | EC50 (pLai RLuc reporter virus; [2]) [nM] | EC50 (pLai RLuc reporter virus; [3]) [nM] | CC50 at 5 days [1] [nM]
16 | O=C(NCc1c(F)cc(F)cc1F)c1c2n3c(c(O)c1=O)C(=O)N1CCCC[C@]3(C[C@@H]2F)C1 (single isomer, unassigned) [Compound 8-1] | 0.86 | 25.4 | 0.429 | 7380
17 | O=C(NCc1c(F)cc(F)cc1F)c1c2n3c(c(O)c1=O)C(=O)N1CCCC[C@]3(C[C@H]2O)C1 (single isomer, unassigned) [Compound 9-1] | 3.06 | 200 | 0.685 | 8080
18 | O=C(NCc1c(F)cc(F)cc1F)c1c2n3c(c(O)c1=O)C(=O)N1CCCC[C@@]3(C[C@H]2O)C1 (single isomer, unassigned) [Compound 9-2] | 1.23 | 34.1 | 0.347 | 5170
19 | O=C(NCc1c(F)cc(F)cc1F)c1c2n3c(c(O)c1=O)C(=O)N1CCCC[C@]3(C[C@@H]2O)C1 (single isomer, unassigned) [Compound 9-3] | 1.06 | 28.5 | 0.384 | 6310
20 | O=C(NCc1c(F)cc(F)cc1F)c1c2n3c(c(O)c1=O)C(=O)N1CCCC[C@@]3(C[C@@H]2O)C1 (single isomer, unassigned) [Compound 9-4] | 0.703 | 5.19 | 0.388 | 6400
21 | O=C(NCc1ccc(F)cc1F)c1c2n3c(c(O)c1=O)C(=O)N1CCCC[C@]3(C[C@H]2O)C1 (single isomer, unassigned) [Compound 10-1] | 4.98 | 121 | 0.715 | 9560
22 | O=C(NCc1ccc(F)cc1F)c1c2n3c(c(O)c1=O)C(=O)N1CCCC[C@@]3(C[C@H]2O)C1 (single isomer, unassigned) [Compound 10-2] | 1.05 | 21.1 | 0.417 | 4120
23 | O=C(NCc1ccc(F)cc1F)c1c2n3c(c(O)c1=O)C(=O)N1CCCC[C@]3(C[C@@H]2O)C1 (single isomer, unassigned) [Compound 10-3] | 3.31 | 25.6 | 0.632 | 9470
24 | O=C(NCc1ccc(F)cc1F)c1c2n3c(c(O)c1=O)C(=O)N1CCCC[C@@]3(C[C@@H]2O)C1 (single isomer, unassigned) [Compound 10-4] | 2.47 | 3.3 | 0.405 | 4610
25 | O=C(NCc1c(F)cc(F)cc1F)c1c2n3c(c(O)c1=O)C(=O)N1CCCC[C@@]3(C1)[C@H](O)[C@H]2O (single isomer, unassigned) [Compound 11-1] | 4 | 3.91 | 1.16 | 50000
26 | O=C(NCc1c(F)cc(F)cc1F)c1c2n3c(c(O)c1=O)C(=O)N1CCCC[C@@]3(C1)[C@@H](O)[C@@H]2O (single isomer, unassigned) [Compound 11-3] | 5.28 | 7.57 | 4.08 | 50000
27 | O=C(NCc1c(F)cc(F)cc1F)c1c2n3c(c(O)c1=O)C(=O)N1CCCC[C@]3(C1)[C@@H](O)[C@@H]2O (single isomer, unassigned) [Compound 11-4] | 4.02 | 20.5 | 1.02 | 50000
28 | CO[C@@H]1C[C@@]23CCCCN(C2)C(=O)c2c(O)c(=O)c(C(=O)NCc4c(F)cc(F)cc4F)c1n23 (single isomer, unassigned) [Compound 12-1] | 1.54 | 16.9 | 0.77 | 9690
